The values that follow come from PubChem BioAssay (NCI).

Structures are written as SMILES. Where “and” joins values, the source holds several entries; their conditions need not be identical. Identical values can stand only once.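 The compound was tested at five concentrations on cells cultured in 96-well plates, with a 48-hour exposure period. Definition used: TGI = concentration required for complete inhibition of growth.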 Starred links: 1 amine or outer side, 2 acyl side, 3 side chain; linkers in the order of their positions; H or OH if unused. Positions of bridges follow the written chain, without caps; N, C: chain ends. Non-standard residues stand in square brackets, D forms with d. Residues, ends and D or L forms follow the SMILES beside them. Chains are numbered I, II in the order given. Actinocin(1to9) = Cc1c2oc3c(C)ccc(C(=O)[*:2])c3nc-2c(C(=O)[*:1])c(N)c1=O; NMeV = CN[CH](C(=O)O)C(C)C; Sar = CNCC(=O)O

Some test systems named below: SW-620 colon; RPMI-8226 leukemia; CCRF-CEM leukemia; RXF 393 renal; SF-268 CNS; OVCAR-3 ovarian; T-47D breast; K-562 leukemia; SK-MEL-5 melanoma; M14 melanoma.
Test in all cases: NCI tumour cell line growth inhibition, 48 h

In the case of `CCC(C)C1NC(=O)C(NC(=O)c2c3nc4c(C(=O)NC5C(=O)NC(C(C)CC)C(=O)N6CCCC6C(=O)N(C)CC(=O)N(C)C(C(C)C)C(=O)OC5C)ccc(C)c4oc-3c(C)c(=O)c2N)C(C)OC(=O)C(C(C)C)N(C)C(=O)CN(C)C(=O)C2CCCN2C1=O` (stereo not given) (I: TIP[Sar][NMeV] / II: TIP[Sar][NMeV]; ester I:1-I:C, II:1-II:C; linker I:N-II:N via Actinocin(1to9); configuration not given here), the TGI with SW-620 colon is 0.0776 µM; in the assay with RPMI-8226 leukemia, 0.0322 µM; with CCRF-CEM leukemia, 0.0106 µM; in the assay on RXF 393 renal, 0.0214 µM and 0.048 µM; with SF-268 CNS, 0.0586 µM; in the assay with OVCAR-3 ovarian, 0.0389 µM. The TGI was 0.0122 µM with T-47D breast; 0.0109 µM and 0.0132 µM in the assay on K-562 leukemia; 0.018 µM in the assay with SK-MEL-5 melanoma; 0.0272 µM in the assay with M14 melanoma.

Consider `CC(ON(C(c1ccccc1)C(C)C)C(C)(C)C)c1ccccc1` (stereo not given), for which the TGI stood at 31.6 µM in the assay with SW-620 colon; 73.7 µM with RPMI-8226 leukemia; 39.3 µM in the assay on CCRF-CEM leukemia; 31.2 µM in the assay on RXF 393 renal; 52.2 µM in the assay on SF-268 CNS; 30 µM with OVCAR-3 ovarian. For the same compound, the TGI in the assay with T-47D breast was 81 µM; in the assay on K-562 leukemia, 49.8 µM; in the assay on SK-MEL-5 melanoma, 29.7 µM; in the assay with M14 melanoma it was 49.2 µM.

On to `Cc1c(N2C(=O)/C(=C/c3ccc(Cl)cc3)N=C2c2ccccc2)c(=O)n(-c2ccccc2)n1C`, for which the TGI was above 100 µM with SW-620 colon; 42.9 µM in the assay on RPMI-8226 leukemia; above 100 µM in the assay with CCRF-CEM leukemia; 76.8 µM in the assay on RXF 393 renal; above 100 µM with SF-268 CNS; above 100 µM in the assay with OVCAR-3 ovarian. Also, the TGI with T-47D breast is above 100 µM; in the assay with K-562 leukemia it was above 100 µM; in the assay with SK-MEL-5 melanoma, 34.3 µM; in the assay on M14 melanoma it was above 100 µM.

As for `Cn1cnc([N+](=O)[O-])c1Sc1nc(N)nc2c1ncn2C1OC(CO)C(O)C1O` (stereo not given), the TGI with SW-620 colon is above 100 µM; in the assay with RPMI-8226 leukemia it was above 95.5 µM; in the assay on CCRF-CEM leukemia, above 100 µM; in the assay on RXF 393 renal, 21.6 µM; in the assay on SF-268 CNS it was above 100 µM; with OVCAR-3 ovarian, above 43.4 µM. Further, the TGI was above 100 µM with T-47D breast, above 100 µM in the assay on K-562 leukemia, 25.7 µM in the assay on SK-MEL-5 melanoma and above 100 µM with M14 melanoma.

On to `COc1ccc(C2NC(=S)Nc3c2c(=O)oc2c3ccc3ccccc32)cc1` (stereo not given), for which the TGI in the assay on SW-620 colon, in the assay with RPMI-8226 leukemia, in the assay with CCRF-CEM leukemia, in the assay with RXF 393 renal, in the assay on SF-268 CNS and in the assay on OVCAR-3 ovarian was above 100 µM throughout. Further, the TGI in the assay with T-47D breast, in the assay on K-562 leukemia, in the assay with SK-MEL-5 melanoma and in the assay with M14 melanoma was above 100 µM throughout.
